Read-outs that look alike come from different tables or passages of the source.
Key:
[1] = test system: Maximal electroshock seizures; assay: MES maximal electroshock seizure test, mice ip; assay type: in vivo; parameters: TPE (time of peak effect), activity: unit not given here; settings: for responders at 100 mg/kg / responders at 10 mg/kg: read-out: MES, animals protected/tested (converted); for anti-MES protecting ability: Phase I
Protocol: Three tests were performed:
1. MES--Electroshock Seizure Test
(§1) Maximal electroshock seizures are elicited with a 60-cycle alternating current of 50 mA intensity (5-7 times that necessary to elicit minimal electroshock seizures) delivered via corneal electrodes for 0.2 seconds. A drop of 0.9% saline is instilled in the eye prior to application of the electrodes in order to […].

[2] = test system: Subcutaneous Pentylenetetrazol seizure; assay: sc Met subcutaneous pentylenetetrazol (Metrazol) seizure test, mice; assay type: in vivo; settings: Mus musculus, sc, read-out: scMet, animals protected/tested (converted)
Protocol: 2. sc Met--Subcutaneous Pentylenetetrazol (Metrazol^R) Seizure Test
The animal is observed for 30 minutes. Failure to observe even a threshold seizure (a single episode of clonic spasms of at least 5 seconds duration) is defined as protection and the results are expressed as the number of animals protected/the number of animals tested.

in vivo [3] = settings: mouse, in vivo
Protocol: The first phase of the ADD Program involved performing tests on male Carworth Farms #1 mice. […] Three tests were performed:
In the second phase of the ADD program protocol, estimates of anticonvulsant activity and neurotoxicity are quantified. The median effective dose (ED50) in the MES, sc Met, and rotorod test is determined. In the case of a compound with apparent activity in only one anticonvulsant test, testing is carried out in the other up to, and in some cases beyond, doses which produce neurological deficit. Compounds which fail to produce minimal neurological deficit are tested whenever possible to doses ten times their lowest anticonvulsant ED50. […] The rotorod ED50 is determined at the time of the peak neurologic deficit.

[4] = test system: Maximal electroshock seizures; assay: Phase VI oral MES test, rats; assay type: in vivo; settings: for ED50 / responders at 60 mg/kg / responders at 50 mg/kg: oral; for ED50: rat; for responders at 60 mg/kg / responders at 50 mg/kg: Rattus norvegicus, read-out: MES, animals protected/tested (converted)
Description: as §1
(§2) This oral screen is designated as phase VI.

in vivo [5] = settings: rat, po
Description: as §2

seizures = assay: Anticonvulsant evaluation (ASP phase I / overall); assay type: in vivo, mice; settings: for minimal effective dose: Mus musculus, ip, Phase I, read-out: ASP Classification
How it was run: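 Male Carworth Farms #1 mice; maximal electroshock seizures elicited by 60-cycle AC, 50 mA, 0.2 s via corneal electrodes after a drop of 0.9% saline in the eye. Animals observed for 30 minutes.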

Neurotoxicity, rats ip = settings: 100 mg/kg
Protocol: The rotorod test is used to elevate neurotoxicity. The animal is placed on a 1 inch diameter knurled plastic rod rotating at 6 rpm. […] Neurologic toxicity is defined as the failure of the animal to remain on the rod for 1 minute and the results are expressed as the number of animals protected/the number of animals tested.
The toxicity evaluation for the commercial agents as previously indicated was based on the onset of ataxia.

Corneal Kindled rats = test system: Corneal Kindled rats; parameters: ED50 (reduction from Stage 5 to Stage 4): unit not given beside the values; settings: cited from earlier work; for ED50 (reduction from Stage 5 to Stage 4): data provided by the ADD Program
[6] = Mus musculus, ip, 0.5 h, 30 min
[7] = Mus musculus, ip, 0.5 h, 30 min, read-out: MES, animals protected/tested
[8] = Mus musculus, ip, 4 h, 4 h, read-out: MES, animals protected/tested
[9] = Mus musculus, ip, 0.25 h, mice ip, 0.25 h
[10] = Mus musculus, ip, 0.5 h, mice ip, 0.50 h
[11] = Mus musculus, ip, 1 h, mice ip, 1.00 h
[12] = Mus musculus, ip, 2 h, mice ip, 2.00 h
[13] = Mus musculus, ip, 4 h, mice ip, 4.00 h
[14] = Mus musculus, ip, 0.25 h, Phase II, 0.25 h
[15] = Mus musculus, ip, 1 h, Phase II, 1.00 h

CC1(C)CC(=O)C=C(Nc2ccccc2)C1 [Compound 36]
responders at 100 mg/kg [1, 6]: 66.7% | responders at 300 mg/kg [1, 7]: 100% | responders at 100 mg/kg ([1]; Mus musculus, ip, 4 h, 4 h): 0% | responders at 300 mg/kg [1, 8]: 0% | ED50 ([1]; Mus musculus, Phase II, ip, time of peak effect): 109 mg/kg | TPE (time of peak effect), activity ([1]; Phase II, ip): 0.5 | responders at 100 mg/kg ([2]; 0.5 h, 30 min): 0% | responders at 300 mg/kg ([2]; 0.5 h, 30 min): 0% | responders at 100 mg/kg ([2]; 4 h, 4 h): 0% | responders at 300 mg/kg ([2]; 4 h, 4 h): 0% | protective index (in vivo [3]): modest | TD50 (in vivo [3]; ip): 233 mg/kg | TPE (time of peak effect), toxicity (in vivo [3]; ip): 0.5 | selectivity ratio (in vivo [3]; ip): 2.13 | ED50 ([4]; Phase VI): 30.1 mg/kg | anticonvulsant activity over time ([4]; Phase VI, rats): anticonvulsant activity is lost after 1 hour | responders at 60 mg/kg ([4]; 0.5 h, 0.50 h): 75% | responders at 60 mg/kg ([4]; 0.25 h): 75% | responders at 60 mg/kg ([4]; 1.00 h): 0% | responders at 60 mg/kg ([4]; 2.00 h): 0% | responders at 60 mg/kg ([4]; 4.00 h): 0% | TD50 (in vivo [5]): > 250 mg/kg | selectivity ratio (in vivo [5]): 8.3 | Tox, animals toxic/tested (in vivo [5]; 60 mg/kg): 0/4 | minimal effective dose (seizures): < 100 mg/kg | anticonvulsant activity (seizures; mouse, in vivo): potent anticonvulsants | animals displaying neurotoxicity/tested (Neurotoxicity, rats ip; 0.25 h (Table X-A)): 5/8 | animals displaying neurotoxicity/tested (Neurotoxicity, rats ip; 0.50 h (Table X-A)): 7/8 | animals displaying neurotoxicity/tested (Neurotoxicity, rats ip; 1.00 h (Table X-A)): 6/8 | animals displaying neurotoxicity/tested (Neurotoxicity, rats ip; 2.00 h (Table X-A)): 6/8 | animals displaying neurotoxicity/tested (Neurotoxicity, rats ip; 4.00 h (Table X-A)): 3/8 | animals displaying neurotoxicity/tested (Neurotoxicity, rats ip; 6.00 h (Table X-A)): 3/8 | animals displaying neurotoxicity/tested (Neurotoxicity, rats ip; 24.00 h (Table X-A)): 0/8

CCOC(=O)C1C(=O)C=C(Nc2ccc(Br)cc2)CC1C (stereo not drawn) [Compound 123]
responders at 10 mg/kg [1, 9]: 75% | responders at 100 mg/kg [1, 6]: 100% | responders at 300 mg/kg [1, 7]: 100% | responders at 10 mg/kg [1, 10]: 75% | responders at 10 mg/kg [1, 11]: 75% | responders at 10 mg/kg [1, 12]: 50% | responders at 100 mg/kg ([1]; Mus musculus, ip, 4 h, 4 h): 66.7% | responders at 300 mg/kg [1, 8]: 100% | responders at 10 mg/kg [1, 13]: 0% | anti-MES protecting ability [1]: showed anti-MES protecting ability | responders at 100 mg/kg ([2]; 0.5 h, 30 min): 0% | responders at 300 mg/kg ([2]; 0.5 h, 30 min): 0% | responders at 100 mg/kg ([2]; 4 h, 4 h): 0% | responders at 300 mg/kg ([2]; 4 h, 4 h): 0% | Tox, animals toxic/tested (in vivo [3]; ip, 100 mg/kg): 0/8 | responders at 50 mg/kg ([4]; 0.5 h, 0.50 h): 100% | responders at 50 mg/kg ([4]; 0.25 h): 100% | responders at 50 mg/kg ([4]; 1.00 h): 100% | responders at 50 mg/kg ([4]; 2.00 h): 100% | responders at 50 mg/kg ([4]; 4.00 h): 100% | Tox, animals toxic/tested (in vivo [5]; 50 mg/kg): 0/4 | minimal effective dose (seizures): < 100 mg/kg

CCOC(=O)C1C(=O)C=C(Nc2ccc(CC)cc2)CC1C (stereo not drawn) [Compound 126]
responders at 100 mg/kg [1, 14]: 100% | responders at 300 mg/kg [1, 7]: 100% | responders at 100 mg/kg [1, 15]: 0% | responders at 300 mg/kg [1, 8]: 0% | responders at 300 mg/kg ([2]; 0.5 h, 30 min): 0% | responders at 300 mg/kg ([2]; 4 h, 4 h): 0% | Tox (rotorod), animals toxic/tested (in vivo [3]; 100 mg/kg): 0/2 | responders at 50 mg/kg ([4]; 0.5 h, 0.50 h): 75% | responders at 50 mg/kg ([4]; 0.25 h): 50% | responders at 50 mg/kg ([4]; 1.00 h): 75% | responders at 50 mg/kg ([4]; 2.00 h): 75% | responders at 50 mg/kg ([4]; 4.00 h): 50% | Tox, animals toxic/tested (in vivo [5]; 50 mg/kg): 0/4 | minimal effective dose (seizures): > 100 mg/kg

CCOC(=O)C1C(=O)C=C(Nc2ccc([N+](=O)[O-])cc2)CC1C (stereo not drawn) [Compound 127]
responders at 100 mg/kg [1, 6]: 100% | responders at 300 mg/kg [1, 7]: 100% | responders at 3 mg/kg ([1]; Mus musculus, ip, 0.5 h, Phase II, 3 mg/kg, 0.50 h, read-out: MES, animals protected/tested): 0% | responders at 10 mg/kg ([1]; Mus musculus, ip, 0.5 h, Phase II, 0.50 h): 0% | responders at 100 mg/kg ([1]; Mus musculus, ip, 4 h, 4 h): 0% | responders at 300 mg/kg [1, 8]: 0% | responders at 100 mg/kg ([2]; 0.5 h, 30 min): 0% | responders at 300 mg/kg ([2]; 0.5 h, 30 min, second trial): 50% | responders at 300 mg/kg ([2]; 0.5 h, 30 min): 100% | responders at 100 mg/kg ([2]; 4 h, 4 h): 0% | responders at 300 mg/kg ([2]; 4 h, 4 h): 0% | Tox (rotorod), animals toxic/tested (in vivo [3]; 3 mg/kg): 0/4 | Tox (rotorod), animals toxic/tested (in vivo [3]; 10 mg/kg): 0/4 | responders at 50 mg/kg ([4]; 0.5 h, 0.50 h): 50% | responders at 50 mg/kg ([4]; 0.25 h): 25% | responders at 50 mg/kg ([4]; 1.00 h): 100% | responders at 50 mg/kg ([4]; 2.00 h): 50% | responders at 50 mg/kg ([4]; 4.00 h): 25% | Tox, animals toxic/tested (in vivo [5]; 50 mg/kg): 0/4 | minimal effective dose (seizures): < 100 mg/kg

CCOC(=O)C1C(=O)C=C(Nc2ccc(C(F)(F)F)cc2)CC1C (stereo not drawn) [Compound 131]
responders at 10 mg/kg [1, 9]: 100% | responders at 100 mg/kg [1, 6]: 100% | responders at 300 mg/kg [1, 7]: 100% | responders at 10 mg/kg [1, 10]: 75% | responders at 10 mg/kg [1, 11]: 100% | responders at 10 mg/kg [1, 12]: 50% | responders at 100 mg/kg ([1]; Mus musculus, ip, 4 h, 4 h): 0% | responders at 300 mg/kg [1, 8]: 100% | responders at 10 mg/kg [1, 13]: 50% | anti-MES protecting ability [1]: showed anti-MES protecting ability | responders at 100 mg/kg ([2]; 0.5 h, 30 min): 0% | responders at 300 mg/kg ([2]; 0.5 h, 30 min): 0% | responders at 100 mg/kg ([2]; 4 h, 4 h): 0% | responders at 300 mg/kg ([2]; 4 h, 4 h): 0% | Tox, animals toxic/tested (in vivo [3]; ip, 100 mg/kg): 0/8 | responders at 50 mg/kg ([4]; 0.5 h, 0.50 h): 100% | responders at 50 mg/kg ([4]; 0.25 h): 100% | responders at 50 mg/kg ([4]; 1.00 h): 100% | responders at 50 mg/kg ([4]; 2.00 h): 100% | Tox, animals toxic/tested (in vivo [5]; 50 mg/kg): 0/4 | minimal effective dose (seizures): < 100 mg/kg

CC1(C)CC(=O)C=C(Nc2ccc(N)cc2)C1 [Compound 142]
responders at 100 mg/kg [1, 14]: 50% | responders at 100 mg/kg [1, 6]: 0% | responders at 300 mg/kg [1, 7]: 100% | responders at 100 mg/kg [1, 15]: 50% | responders at 100 mg/kg ([1]; Mus musculus, ip, 4 h, 4 h): 33.3% | responders at 300 mg/kg [1, 8]: 100% | responders at 100 mg/kg ([2]; 0.5 h, 30 min): 0% | responders at 300 mg/kg ([2]; 0.5 h, 30 min): 0% | responders at 100 mg/kg ([2]; 4 h, 4 h): 0% | responders at 300 mg/kg ([2]; 4 h, 4 h): 0% | Tox (rotorod), animals toxic/tested (in vivo [3]; 100 mg/kg): 0/2 | responders at 50 mg/kg ([4]; 0.5 h, 0.50 h): 0% | responders at 50 mg/kg ([4]; 0.25 h): 0% | responders at 50 mg/kg ([4]; 1.00 h): 0% | responders at 50 mg/kg ([4]; 2.00 h): 0% | responders at 50 mg/kg ([4]; 4.00 h): 25% | Tox, animals toxic/tested (in vivo [5]; 50 mg/kg): 0/4 | minimal effective dose (seizures): < 100 mg/kg

NC(=O)N1c2ccccc2C=Cc2ccccc21 [carbamazepine, reference compound]
TPE (time of peak effect), activity ([1]; Phase II, ip): 0.5 | TPE (time of peak effect), toxicity (in vivo [3]; ip): 0.5 | ED50 ([4]; Phase VI): 8.5 mg/kg | ED50, corneal kindling (Corneal Kindled rats; comparative commercial product): 28.90 mg/kg | ED50 (reduction from Stage 5 to Stage 4) (Corneal Kindled rats; po, 1 h, 30 min): 28.90

O=C1CN=C(c2ccccc2Cl)c2cc([N+](=O)[O-])ccc2N1 [clonazepam]
ED50 (reduction from Stage 5 to Stage 4) (Corneal Kindled rats; po, 1 h, 30 min): 0.70

O=C1NC(=O)C(c2ccccc2)(c2ccccc2)N1 [phenytoin, reference compound]
TPE (time of peak effect), activity ([1]; Phase II, ip): 2 | TPE (time of peak effect), toxicity (in vivo [3]; ip): 2 | ED50 ([4]; Phase VI): 29.8 mg/kg | TD50 (in vivo [5]): > 3000 mg/kg | ED50 (reduction from Stage 5 to Stage 4) (Corneal Kindled rats; ip, 0.5 h): 48.25 | activity in corneal kindling (Corneal Kindled rats; oral route): inactive | ED50 (reduction from Stage 5 to Stage 4) (Corneal Kindled rats; po, 0.5 h): > 100

From patent US5616615A, “Enaminone esters” (priority 1995, dated 1997)
